This note sets out measurements from the METLIN SMRT retention time set (Domingo-Almenara et al. 2019).

Molecules are shown by their SMILES.

This data set in a line: gradient 5% acetonitrile 3 min, to 50% in 2 min, to 85% in 15 min, held 3 min, 100 µL/min. The note with it: column: Zorbax Extend-C18 2.1 x 50 mm; eluents: water / acetonitrile, 0.1% formic acid. Summed up: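 Standards, all pure, were combined into mixtures of ~100 molecules and run at 100 μL/min on a Zorbax Extend-C18 column (2.1 × 50 mm, 1.8 μm) with water and acetonitrile, each containing 0.1% formic acid. A coupled quadrupole time-of-flight mass spectrometer operated in positive and negative ionization mode. Retention time values come from computationally picked adduct peaks, each inspected manually.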
In the case of `COc1ccc(CNC(=O)c2cn3ccc(C)cc3n2)c(OC)c1`, the RP-LC retention time was 730 s.
As for `O=C(Cc1cccs1)N1CCC[C@H]1c1nc(-c2ccccc2)n[nH]1`, the figure is 711 s; as for `CCc1ccc(NC(=O)c2cn(CC)nc2S(=O)(=O)N2CCSCC2)cc1`, 1100 s; as for `O=C(Cn1nc2c(cc1=O)CCCC2)NCCc1nc(-c2ccccc2)cs1`, 784 s.
Molecule `CC(C)Oc1ccc(-c2noc(Cn3nc(-c4ccccc4)ccc3=O)n2)cc1` had an RP-LC retention time of 732 s.
For `CC1CCN(S(=O)(=O)c2ccc3nc(N4CCN(C5CCCCC5)CC4)ccc3c2)CC1` the value was 776 s; for `COC(=O)c1cc(S(=O)(=O)N2CCCC2C(=O)Nc2ccc(C#N)cc2)cn1C` (stereo not given), 841 s.
For `c1ccc(-c2nc3ccccn3c2Nc2ccc3c(c2)OCCO3)cc1` the value was 665 s; for `Cc1ccc(NC(=O)NCCn2c(-c3ccncc3)nc3cccnc32)c(C)c1`, 641 s.
As to `COC(=O)c1cc(OCC(=O)Nc2ccc(OC)cc2)c2cc(OC)ccc2n1`, the RP-LC retention time was 775 s.
For `Cc1cc(C(=O)N2CCCn3cc(-c4ccccc4F)nc32)nn1C` the value was 656 s; for `O=C(NCc1cccs1)C1CC(=O)N(c2ccc3c(c2)CCN3C(=O)C2CC2)C1` (stereo not given), 710 s; for `CN(C)CCNc1oc(-c2ccc(COc3ccccc3)o2)nc1C#N`, 684 s.
For `Cc1ccc(C)c(NS(=O)(=O)c2cc3c(s2)CCN(C(=O)C2CC2)C3)c1` the value was 864 s.
For `CC(=O)Nc1ccc(C(=O)NC2CCN(c3cc(-c4cccs4)[nH]n3)C2)cc1` (stereo not given) the value was 641 s; for `O=[N+]([O-])c1cc(F)c2cccnc2c1O`, 773 s.
Regarding `CNC(=O)C1CC(=O)N(C2CCCCC2)C1` (stereo not given), the RP-LC retention time worked out at 609 s.
For `COc1ccc(-c2nc3cnccn3c2Nc2ccc3c(c2)OCO3)cc1OC`, the RP-LC retention time was found to be 672 s.
For `Cc1ccc2[nH]cc(CCNC(=O)CCC(=O)N3Cc4cccn4-c4ccccc43)c2c1` the value was 868 s; for `O=C(NCCCn1cccn1)C1CN(S(=O)(=O)c2ccccc2)CC12CCCCC2` (stereo not given), 819 s; for `Cc1ccccc1CNC(=O)C1CCN(CCc2cn(C)c3ncccc23)CC1`, 608 s.
For `COc1ccc(-c2cn3c(CC(=O)NCc4cccc(Br)c4)csc3n2)cc1OC` the value was 764 s.
As for `CCCCCC(=O)Nc1nc(-c2ccc(C)cc2C)cs1`, the figure is 1190 s; as for `O=C(Cn1c(=O)nc(-c2ccccc2)c2ccccc21)NCCc1ccccn1`, 590 s; as for `CCCNC(=O)C1CCCN(c2ccc(SCC(=O)Nc3ccc(Cl)cc3F)nn2)C1` (stereo not given), 733 s.
The molecule `CN(C)C[C@@H]1CN(S(C)(=O)=O)C[C@H]1NC(=O)c1ccsc1` came in with an RP-LC retention time of 569 s.
For `Cc1cnc(C(=O)NC2C[C@H]3CC[C@@H](C2)N3C(=O)c2ccc(C)s2)cn1` (stereo not given in full) the value was 683 s; for `CCOc1ccc(-n2nnc(C(=O)Nc3cccc(Cl)c3C)c2C)cc1`, 1120 s; for `Cc1sc(-c2cc(C(F)(F)F)[nH]n2)cc1S(=O)(=O)NC1CCCCC1`, 1030 s.
For `CCNC(=O)Nc1ccc2c(c1)CN(S(=O)(=O)c1cnn(CC)c1)CCO2`, the RP-LC retention time worked out at 704 s.
For `COc1ccccc1Oc1ccc(S(=O)(=O)Nc2cccc(C(C)=O)c2)cc1` the value was 887 s; for `Cc1c(Cl)cccc1Nc1c(-c2ccc(Br)cc2)nc2cnccn12`, 1160 s; for `Cn1c(=O)cnc2ccc(N3CCCC3)nc21`, 884 s.
With `Cc1nc(-c2cccc(C(=O)N3CCN(c4nc5cccnc5o4)CC3)c2)no1`, the RP-LC retention time was determined as 688 s.
As to `COCCC1CCN(C(=O)c2nccc3ccccc23)CC1`, the RP-LC retention time was 719 s.
As for `O=C(NCC1CCCO1)N1CCN(c2nc3ccccc3n(Cc3ccccc3)c2=O)CC1` (stereo not given), the figure is 850 s; as for `Cc1ccc(C(CC(=O)N2CCN(c3ccccn3)CC2)N2Cc3ccccc3C2=O)cc1` (stereo not given), 655 s.
For `COC(=O)c1ccccc1NC(=O)CN1CCC(c2nc(-c3cccc(F)c3)no2)CC1` the value was 738 s; for `Cc1cc(C)cc(NC(=O)Cn2cnc(C)c(C)c2=O)c1`, 710 s.
`Cc1ccc(C2=NC3(CCN(C(=O)Nc4cccc(C)c4)CC3)NC2=O)cc1` yielded an RP-LC retention time of 851 s.
As for `Cc1c(Cl)cccc1NC(=O)C1CCN(c2cc(-n3ccnc3C)ncn2)CC1`, the figure is 581 s; as for `COC(=O)CSc1ccc(NC(C)=O)nn1`, 577 s; as for `CCOC(=O)C(=O)Nc1ccc(SCc2nnc(-c3ccccc3C)o2)cc1`, 950 s.
With `CCCCn1cc(S(=O)(=O)Nc2ccc(C)cc2F)c2cccnc21`, the RP-LC retention time amounted to 980 s.
For `CCn1nc(CNC(=O)Cc2cccs2)c2ccccc21` the value was 766 s; for `O=C(CC1CCCC1)N1CCCCC1c1nncn1CC1CC1` (stereo not given), 781 s.
The molecule `CN1C(=O)COc2ccc(-c3csc(NC(=O)c4ccco4)n3)cc21` returned an RP-LC retention time of 806 s.
As for `COc1cccc(CNC(=O)N2CCCCC2c2nncn2C)c1` (stereo not given), the figure is 625 s; as for `CCCCN(C)C(=O)c1ccc2c(c1)NC(=O)C(CC(C)C)N2` (stereo not given), 581 s; as for `CCc1nncn1C1CCN(S(=O)(=O)c2cc(OC)ccc2OC)CC1`, 664 s.
For `CCc1nc2cc(-c3noc(Cc4cccc(Cl)c4)n3)ccc2o1` the value was 1170 s.
In turn, `CCC1CCCCN1CCCNC(=O)Cn1c(=O)c2cccn2c2ccc(F)cc21` (stereo not given) displayed an RP-LC retention time of 641 s.
As for `Cc1ccc(-c2nc(C3CCN(S(=O)(=O)c4ccc(C)c(C)c4)CC3)no2)cc1`, the figure is 1320 s.
The molecule `O=C(Nc1ccc(Cl)cc1C(F)(F)F)N1CCC(n2cnnc2C2CC2)C1` (stereo not given) came in with an RP-LC retention time of 704 s.
As for `Cc1ccc(C(=O)N2CCC(COc3ccc(C(=O)NC(C)C)cc3)CC2)c(C)c1`, the figure is 931 s.
As for `NC(=O)CCC(C(=O)O)N1C(=O)c2ccc(O)cc2C1=O` (stereo not given), the figure is 620 s; as for `COc1ccc(-c2nnc(COc3ccc(NC(=O)CNC(=O)Cc4ccccc4)cc3)o2)cc1`, 812 s; as for `O=C(Nc1ccc(Br)cc1)C1CCCN1S(=O)(=O)c1ccc(F)cc1` (stereo not given), 967 s.
As for `O=S(=O)(c1ccc2c(c1)CCCC2)N1CCCn2nc(-c3cccnc3)cc2C1`, the figure is 781 s; as for `CCCC(=O)Nc1ccc2c(c1)CN(C(=O)C1CC1)C(C(=O)N(C)C)C2` (stereo not given), 709 s; as for `CCOC(=O)C1=C(N)Oc2c(oc(CO)cc2=O)C1c1cccnc1` (stereo not given), 612 s.
For the molecule `CC(=O)N1c2ccc(S(=O)(=O)N3CCCC3)cc2CC1C(=O)NCCC(C)C` (stereo not given), the RP-LC retention time came out at 806 s.
With `CCn1cc(S(=O)(=O)Nc2cccc(F)c2)c2cccnc21`, the RP-LC retention time was 817 s.
Regarding `O=C(Cn1c(=O)n(-c2ccc(F)cc2)c2ncccc21)NCCCN1CCOCC1`, the RP-LC retention time turned out to be 804 s.
As for `COc1ccccc1N1CCN(S(=O)(=O)c2cc(-c3cc(C(F)(F)F)on3)sc2C)CC1`, the figure is 1300 s; as for `CC1(C(=O)NCc2ccccc2)CN(S(C)(=O)=O)CC(=O)N1CCc1ccc(Cl)cc1` (stereo not given), 874 s; as for `COCCCN1C(=O)c2cc(-c3ccc(OC)cc3)nn2CC1(C)C(=O)NCc1ccccc1` (stereo not given), 826 s.
As for `O=C(N[C@@H]1CN(c2ncccn2)C[C@H]1CO)c1ccc2ccccc2n1`, the figure is 654 s.
Regarding `CCn1cnc(S(=O)(=O)N2CCC(C(=O)NCc3cccs3)CC2)c1`, the RP-LC retention time was 658 s.
In the case of `O=C(NCc1csc(C2CCCN(C(=O)C3CCCC3)C2)n1)C1CC1` (stereo not given), the RP-LC retention time was 671 s.
For `O=C(NC1CCN(Cc2ccccc2)CC1)c1ccccc1Cl` the value was 549 s.
On to `COc1cc(NC(=O)CSc2cc(N3CCN(c4ccccc4OC)CC3)ncn2)cc(OC)c1`, for which the RP-LC retention time amounted to 957 s.
The molecule `COCCc1noc(-c2cnc3nc(C)ccc3c2Nc2cccc(F)c2)n1` gave an RP-LC retention time of 729 s.
`Cc1ccc(-c2ncccc2CNC(=O)c2ccco2)cc1` showed an RP-LC retention time of 608 s.
`COc1ccccc1N1CCN(C(=O)Cn2nc(C(=O)N3CCOCC3)c3ccccc32)CC1` showed an RP-LC retention time of 718 s.
For `O=C(Cn1ccc2cc(S(=O)(=O)N3CCCCCC3)ccc21)N1CCN(c2ccccn2)CC1` the value was 707 s; for `CCNC(=O)C1CCN(c2nc3ccc(-c4ccc(OC)cc4)nc3s2)CC1`, 825 s; for `CC1CCN(S(=O)(=O)c2cc(-c3nnc(C4CC4)o3)co2)CC1`, 945 s.
For `O=C(Nc1ccc(Cl)cc1)N1CCCC(c2nnc(Cc3ccc(F)cc3)o2)C1` (stereo not given) the value was 877 s; for `CCCN1C(=O)COc2ccc(-c3noc(CNC(=O)Cc4ccc(Cl)cc4)n3)cc21`, 1050 s.
